In patent publication US11141488B2, “Compositions comprising biodegradable copolymers for prolonged local release of an antibiotic” (DEXCEL PHARMA TECHNOLOGIES LTD., priority 2017, dated 2021):
Where two headings read alike, the source gives them in different places.

Key:
[1] = Local and systemic gentamicin levels after single intramuscular injection in rabbits; type: in vivo, New Zealand White (NZW) rabbits; details: rabbit muscle
Experimental: Prior to injection, a skin incision was made in order to expose the muscle. The site of injection was marked by a non-absorbable suture at the upper layer of the muscle. […] Following injection, the skin was closed using surgical clips. The procedure was performed under general anesthesia. Animals were clinically observed for up to 8 weeks post-dosing, if applicable.
Tissue collection was performed by resecting the right paravertebral muscle, transversally slicing into ˜1 cm thick serial sections (total of 7 serial sections), when the injection site was located at the core center of the central section. […] At the injection site, one sample ( ? ) was taken.

[2] = rat skin tissue
Experimental: The site of injection was located at the right mid trunk area close to the spinal cord of the animals. The fur covering the flank and dorsal areas was removed by close clipping using an electric clipper up to 96 hours prior to dosing. Injections were performed using 18-19 G needle. The procedure was performed under general anesthesia. Blood samples were collected at 15 minutes, 30 minutes, 45 minutes, 1 hour, 1.5 hours, 2 hours, 4 hours, 6 hours, 8 hours, 24 hours, 48 hours, 72 hours, 1 week, 2 weeks, 3 weeks, 4 weeks, 6 weeks, and 8 weeks.
Blood samples were processed by centrifugation (3,000 G for 15 minutes at room temperature). Following centrifugation, plasma was removed into plastic tubes, followed by freezing using liquid nitrogen to (−70)-(−80)° C. for subsequent analysis.
Tissue collection was performed following removal of the dorsal trunk area by close clipping using an electrical clipper, if needed. The skin at the dorsal site of the animal was removed and pinned to a cork board. […] The injection site A is marked by a circular area of 1 cm in diameter (1×0.8 cm diameter sample). Circular strips B, C, and D each indicate 0.5 cm strips in width encircling circle (at least 4 samples were taken from each strip).
Thereafter, the samples were injected into a LC-MS/MS system (3 μl for samples at a concentration range of 2.5-170 μg/ml and 20 μl for samples at a concentration range of 0.075-2.5 μg/ml). […] Thereafter, 20 μl of the samples were injected into a LC-MS/MS system.
Sample concentrations were obtained by interpolation from the run defined calibration curve. The raw data was processed using AB SCIEX 1.5.1 software.

[3] = parenteral administration, levels exceeded for prolonged periods of time; cited from earlier work

Question: Which “local concentration of gentamicin, area B” value ([1]; area B of FIG. 4, 24 hours after single 0.2 ml IM injection of RA:SA (70:30) copolymer with 20 wt % gentamicin sulfate) does the source give for gentamicin here?
Answer: 46 µg/mL

Question: And the “local concentration of gentamicin, area C” value ([1]; area C of FIG. 4, 24 hours after single 0.2 ml IM injection of RA:SA (70:30) copolymer with 20 wt % gentamicin sulfate)?
Answer: 3 µg/mL

Question: What about the “local concentration of gentamicin, area D” value ([1]; area D of FIG. 4, 24 hours after single 0.2 ml IM injection of RA:SA (70:30) copolymer with 20 wt % gentamicin sulfate) of the same substance?
Answer: 6 µg/mL

Question: What about the “local concentration of gentamicin, area A” value ([1]; injection site, 24 hours after single 0.2 ml IM injection of RA:SA (70:30) copolymer with 20 wt % gentamicin sulfate) of the same substance?
Answer: 765 µg/mL

Question: And the “local concentration of gentamicin, area A” value ([2]; injection site, 24 hours after single 0.2 ml SC injection of RA:SA (70:30) copolymer with 20 wt % gentamicin sulfate)?
Answer: 362 µg/mL

Question: What about the “local concentration of gentamicin, area B” value ([2]; strip B of FIG. 8, 24 hours after single 0.2 ml SC injection of RA:SA (70:30) copolymer with 20 wt % gentamicin sulfate) of the same substance?
Answer: 218 µg/mL

Question: And the “local concentration of gentamicin, area C” value ([2]; strip C of FIG. 8, 24 hours after single 0.2 ml SC injection of RA:SA (70:30) copolymer with 20 wt % gentamicin sulfate)?
Answer: 43 µg/mL

Question: And the “local concentration of gentamicin, area D” value ([2]; strip D of FIG. 8, 24 hours after single 0.2 ml SC injection of RA:SA (70:30) copolymer with 20 wt % gentamicin sulfate)?
Answer: 31 µg/mL

Question: What about the “systemic levels above which ototoxicity and nephrotoxicity are induced” value [3] of the same substance?
Answer: 10 to 12 µg/mL
